Results: patent US6696533B1, “Stable N-oxly radical assisted emulsion polymerization under pressure” (BASF Aktiengesellschaft, priority 1997, dated 2004)

Source text: The monomers and polymerization auxiliaries used in the examples below were used without further purification, in other words as acquired.

CC1(C)CCCC(C)(C)N1O [TEMPO, 2,2,6,6-tetramethyl-1-oxyl-piperidine]
molal solubility in water: 6.4e-05 mol/kg
